Data reported in patent US20240108641A1, “COMPOSITIONS FOR ORAL ADMINISTRATION OF ZOLEDRONIC ACID OR RELATED COMPOUNDS FOR TREATING DISEASE” (ANTECIP BIOVENTURES II LLC, priority 2012, published 2024).

Key:
[1] = assay type: physicochemical; conditions: pH 5.5
Description: One gram of the test compound was measured into a beaker. […] The procedure was continued until complete dissolution was achieved. […] The procedure was performed for each compound.

in vivo = conditions: dog, po, 150 mg
Description: Tablets were manufactured containing either pure zoledronic acid or the disodium salt of zoledronic acid (disodium zoledronate tetrahydrate). Both types of tablets contained 50 mg of zoledronic acid equivalent per tablet. Identical excipients were used in both types of tablets, with amounts adjusted to account for the difference in molecular weights between the acid and the disodium salt.
Beagle dogs were orally administered tablets containing 150 mg zoledronic acid equivalent either in the form of disodium zoledronate (Group 1) or pure zoledronic acid (Group 2). Each animal was given three 50 mg equivalent tablets (150 mg total), which were administered together. The animal's oral cavity was wetted with water before placing the tablets on the back of the animal's tongue. Animals were fasted before and after dosing. Animals were 6 to 9 months of age and weighed 6 to 10 kg on the day of dosing. There were three dogs per group.
Serial blood samples were collected from each animal by venipuncture of the jugular vein at various points after dosing for measurement of plasma concentrations of zoledronic acid. Blood samples were collected into chilled tubes containing K2EDTA as the anticoagulant. Samples were then centrifuged at approximately 3000 rpm at +4° C. for 10 minutes for plasma derivation. Plasma concentrations of zoledronic acid were measured using an LC/MS/MS method.

## O.O.O.O.O=P([O-])(O)C(O)(Cn1ccnc1)P(=O)([O-])O.[Na+].[Na+] [disodium zoledronate tetrahydrate]
[1]
  aqueous solubility relative to zoledronic acid: approximately 50 times
In vivo
  average AUC0-∞: 4073 ng·h/mL
